The subject of one experiment is HSV-1. Kind of experiment: In vitro anti-viral assay, HSV-1/luciferase replication in Hep-2 cells with IFN-α. It counts as cell-based, Herpes Simplex Virus-1. Here is the method:
Hep-2 cells were seeded at 2×10^4 cells/well in 96 well plates. Cells were infected with HVS1 at an Multiplicity Of Infection (MOI) of 5 for 1 h at 37° C. 24 hours post-seeding. Virus was aspirated, cells were washed, and 200 μl of medium with or without IFN-α or compound were added as indicated. After 48 h, cells were washed, lysed and luciferase activity were measured according to the manufacturer's instructions. […] Each bar represents the mean+/−SEM of triplicates from one experiment.
Herpes Simplex Virus-1 (HSV-1) represents one of the major recurrent virus infections observed in SLE patients^37. Type-I and Type-II IFN signals are known to block HSV-1 dissemination in mice^38, and as a consequence, a therapeutic approach that neutralizes their combined activity may constitute an important safety concern. Therefore, the impact of Apicidin 1a, IKK2 inhibitor IV, and JAK inhibitors on HSV-1 replication regulated by IFN-α in Hep-2 cells was examined in vitro. HSV-1/luciferase was used to infect Hep-2 cells, and viral replication was monitored by luciferase expression.
Hep-2 cells were propagated in MEM (Invitrogen) with 10% fetal bovine serum. HSV-1 recombination virus with both firefly and Renilla luciferase genes in a divergent orientation from a single multiple cloning site were a gift from Dr. Leib's lab. Hep-2 cells were seeded at 2×10^4 cells/well in 96 well plate, 24 h post seeding, cells were infected with virus at an MOI of 5, after absorption for 1 h at 37° C., free viral particles were removed by aspiration, cells were washed, and 200 μl medium containing IFN-α with or without test compounds. After 48 h incubation, cells were washed and lysed in 20 μl of Passive Lysis Buffer (Promega Inc; Madison, Wis.) frozen, thawed, and assayed for firefly and Renilla luciferase activity using the Dual Luciferase Assay kit (Promega).

In a further experiment the test system is IP-10. Kind of experiment: IFN-α induced chemokine release in vivo (adenovirus IFN-α5, serum IP-10 ELISA). Also on record: species or system Female NZBW/F1 mice. Here is the method:
Freshly isolated monocytes were treated with 500 IU/ml IFN-α with or without indicated compounds for 48 h. Supernatants were collected and MCP-1 and IP-10 levels were analyzed by Searchlight Inc. Percentage inhibition represents inhibition of the upregulation of chemokine induced by IFN-α compared to the vehicle control. Panel A: Effect of compounds on IP-10 secretion. Panel B: Effect of compounds on MCP-1 secretion. Each bar represents the average+/−SEM of three independent experiments. Panel C: IKK2 inhibitor IV blocked IFN-α induced IP-10 protein level in vivo. Female NZBW/F1 mice were treated with either antibody (i.p. injection 30 mg/kg) or IKK2 inhibitor (45 mg/kg BID) as described in materials and methods. Adenovirus-IFN-a (1×10^10 viral particles) was administrated i.v. at time 0. Samples were collected 6 h post-stimulation, IP-10 protein level was measured by ELISA. Data representative of two experiments.
Next, the effect of IKK-2 inhibitor IV in IP-10 and MCP-1 expression was examined in vivo. To induce IP-10 and MCP-1 expression, mice were infected with adenovirus encoding IFN-α5. As a result, IP-10 but not MCP-1 levels were detected in serum (data not shown). […]
Female NZBW/F1 mice (Jackson Laboratories, Bar Harbor, Me.) were housed in pathogen-free conditions with access to food and water. […] Serum levels of IP10 were assessed by ELISA (R&D Systems, Minneapolis, Minn.). […]
A general note: ELISA stands for enzyme-linked immunosorbent assay.

The text below walks through data of US20100093611A1, “COMPOUNDS AND METHODS FOR TREATING OR PREVENTING AUTOIMMUNE DISEASES” (priority 2007, published 2010).

Consider `CCC(=O)CCCCC[C@@H]1NC(=O)[C@H]2CCCCN2C(=O)C([C@@H](C)CC)NC(=O)[C@H](Cc2cn(OC)c3ccccc23)NC1=O` (some centres unmarked) [Compound 2, Apicidin], for which the “Effect on anti-viral effects of IFN-α at low dose” value in the experiment with HSV-1 (HSV-1, 0.1 μm (FIG. 7C)) is “inhibited anti-viral effects of IFN-α”. Moreover, the “IFN-α dependent anti-viral activity at higher dose” value with HSV-1 (HSV-1, higher dose where MCP-1 production is inhibited (FIG. 7C)) is recorded as “abolished or viral growth was actually promoted”.
With `NC(=O)Nc1sc(-c2ccc(F)cc2)cc1C(N)=O` [Compound 5, IKK-2 Inhibitor IV], the “Effect on IFN-α dependent anti-viral activity (HSV-1 replication)” value in the experiment on HSV-1 (MOI 5, 48 h, even at higher doses (FIG. 7A, 7B)) is recorded as “retained the majority of IFN-α dependent anti-viral activity”. The “IFN-α induced IP-10 protein level in vivo (in words)” value in the experiment with IP-10 (Female NZBW/F1 mice, 45 mg/kg BID, 6 h post-stimulation, ELISA (FIG. 6C)) is “blocked”. Also, in the experiment with IP-10 (mice infected with adenovirus encoding IFN-α5, 6 h post-stimulation, IKK2 inhibitor 45 mg/kg BID, antibody i.p. 30 mg/kg), the “Inhibition of levels of serum IP-10” value was 98%.
